The values that follow come from ChEMBL document CHEMBL4725449, “Brain Penetrable Inhibitors of Ceramide Galactosyltransferase for the Treatment of Lysosomal Storage Disorders” (ACS Med Chem Lett, 2020).

Experiment [1] is described as follows: In vivo inhibition of GalCer de novo synthesis in adult C57BL/6 mouse kidney assessed as reduction in [13C] galactose incorporation into GalCer at 0.3 mg/kg, po via gavage treated with compound for 1 hr prior to intraperitoneal injection of [13C] galactose measured after 5 hrs of compound administration relative to control. It counts as functional.
Experiment [2] can be described thus: In vivo inhibition of SFT de novo synthesis in adult C57BL/6 mouse kidney assessed as reduction in [13C] galactose incorporation into SFT at 3 mg/kg, po via gavage treated with compound for 1 hr prior to intraperitoneal injection of [13C] galactose measured after 5 hrs of compound administration relative to control. It counts as functional.

Consider `CNC(=O)c1csc2c(C(F)(F)F)cc(N3CCC(OC(=O)N[C@@H](C)COC(F)(F)F)CC3)nc12`, for which the inhibition in vivo at 0.3 mg/kg in experiment [1] worked out at 19%. Moreover, in experiment [2], the inhibition in vivo at 3 mg/kg turned out to be 85%.

Broadly, the inhibition in vivo is the share of the control response that was lost under treatment.
